Laboratory results from patent US20260137653A1, “USE OF HEROMBOPAG OR PHARMACEUTICALLY ACCEPTABLE SALT THEREOF IN TREATMENT OF TUMOR CHEMOTHERAPY-INDUCED THROMBOCYTOPENIA” (JIANGSU HENGRUI PHARMACEUTICALS CO., LTD., priority 2022, published 2026).

Tested on: patients with chemotherapy-induced thrombocytopenia (platelet count <75×10^9/L, chemotherapy delay ≥1 week)
Experiment: Randomized placebo-controlled clinical study of herombopag olamine tablets in thrombocytopenia induced by chemotherapy for malignant tumors (Example 1)
Format: in vivo, human
Experimental: Investigational drug: herombopag olamine tablets, 2.5 mg/tablet, manufactured and provided by Jiangsu Hengrui Pharmaceuticals Co., Ltd.
Control drug: herombopag olamine simulated tablets (placebo), 2.5 mg/tablet, identical in shape, color, weight, etc. to the herombopag olamine tablets, manufactured and provided by Jiangsu Hengrui Pharmaceuticals Co., Ltd.
Patients must meet all of the following inclusion criteria to be eligible for the study: • 1. Age between 18 years and 75 years (inclusive), regardless of gender. • 2. Pathologically or cytologically confirmed diagnosis of malignant tumors, including lung cancer (small cell or non-small cell), breast cancer, bladder cancer, etc. • 3. The subject is currently receiving a chemotherapy regimen on a 21-day cycle (excluding other chemotherapy cycle lengths) and requires the use of one or more chemotherapeutic drugs, such as: • Antimetabolites, including gemcitabine, etc.; • Platinum-based agents, including carboplatin, nedaplatin, cisplatin, lobaplatin, etc.; • Anthracyclines, including doxorubicin, daunorubicin, epirubicin, etc.; • Alkylating agents, including cyclophosphamide, ifosfamide, etc. • 4. The subject experiences a delay of ≥1 week in chemotherapy relative to the expected time due to thrombocytopenia, and the platelet count remains <75×10^9/L. • 5. Physical fitness status ECOG score of 0-1. • 6. The subject has an expected survival period of ≥12 weeks at the time of screening and is able to receive at least 2 or more cycles of the current chemotherapy regimen. • 7. Subjects of childbearing potential must agree to use reliable methods of contraception throughout the study (including male or female condoms, contraceptive foams, contraceptive gels, contraceptive films, contraceptive creams, contraceptive suppositories, abstinence, placement of intrauterine devices, etc.). Female subjects who have undergone a hysterectomy, bilateral salpingectomy, or bilateral tubal ligation or have been postmenopausal for more than 1 year and male subjects who have undergone a bilateral vasectomy or ligation are excluded. • 8. The subject is willing to participate in the study, can provide written informed consent, and has good compliance.
Patients meeting any one of the following criteria are excluded from the study: • 1. Screening or baseline platelet count of <30×10^9/L. • 2. Platelet count of <75×10^9/L prior to the first dose of chemotherapy. • 3. Hematopoietic diseases other than chemotherapy-induced thrombocytopenia (CIT), including but not limited to leukemia, primary immune thrombocytopenia, myeloproliferative diseases, multiple myeloma, and myelodysplastic syndrome. • 4. […]

SMILES: CC1=NN(c2ccc3c(c2)CCCC3)C(=O)/C1=N\Nc1cccc(-c2ccc(C(=O)O)o2)c1O [herombopag olamine tablets, herombopag]
- OR value for achieving the primary study endpoint, investigational group vs placebo group (95% CI 2.82-38.65, p=0.0001): 10.44
- proportion of subjects in which the drug is therapeutically effective (patients achieving the primary study endpoint) (investigational group n=28 (17/28), starting dose 7.5 mg once daily oral, two consecutive 21-day chemotherapy cycles, 95% CI 40.6-78.5, placebo 4/31 (12.9%)): 60.7%
- incidence of adverse events (investigational group vs placebo group): comparable between the investigational group and the placebo group
- grade 3 or higher grade treatment-related adverse events or treatment-related serious adverse events (investigational group, starting dose 7.5 mg once daily): No grade 3 or higher grade treatment-related adverse events or treatment-related serious adverse events were observed
